Measured values reported in ChEMBL document CHEMBL1201862, “PubChem BioAssay data set” (2004).
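Assay format: 96-well plates, 48-hour exposure. GI50: concentration for 50% inhibition of growth.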 Activity calls are given as the source filed them. Cut-off read from the data, not from the text of the source: active = GI50 up to about 1.1 µM and inactive = higher.

Tests used:
Experiment in all cases: inhibition of tumour cell growth, NCI panel, 48 h
OVCAR-3 = tested on: OVCAR-3
HCT-15 = tested on: HCT-15
SK-MEL-5 = tested on: SK-MEL-5
ACHN = tested on: ACHN
SK-MEL-2 = tested on: SK-MEL-2
HT-29 = tested on: HT-29
M14 = tested on: M14
HOP-18 = tested on: HOP-18
CCRF-CEM = tested on: CCRF-CEM
SR = tested on: SR
HOP-62 = tested on: HOP-62
DMS-273 = tested on: DMS-273
NCI-H23 = tested on: NCI-H23
DMS-114 = tested on: DMS-114
SN12C = tested on: SN12C
HOP-92 = tested on: HOP-92
CAKI-1 = tested on: CAKI-1
U-251 = tested on: U-251
SK-MEL-28 = tested on: SK-MEL-28
IGROV-1 = tested on: IGROV-1
M19-MEL = tested on: M19-MEL
RXF 393 = tested on: RXF 393
A498 = tested on: A498
UACC-62 = tested on: UACC-62
OVCAR-5 = tested on: OVCAR-5
UO-31 = tested on: UO-31
KM-20L2 = tested on: KM-20L2
SF-295 = tested on: SF-295
OVCAR-4 = tested on: OVCAR-4
786-0 = tested on: 786-0
HCC 2998 = tested on: HCC 2998
NCI-H226 = tested on: NCI-H226
NCI-H522 = tested on: NCI-H522
RXF 631 = tested on: RXF 631
LOX IMVI = tested on: LOX IMVI
SW-620 = tested on: SW-620
K562 = tested on: K562
SNB-78 = tested on: SNB-78
COLO 205 = tested on: COLO 205
NCI-H460 = tested on: NCI-H460
RPMI-8226 = tested on: RPMI-8226
SNB-75 = tested on: SNB-75
HCT-116 = tested on: HCT-116
SF-268 = tested on: SF-268
LXFL 529 = tested on: LXFL 529
UACC-257 = tested on: UACC-257
DLD-1 = tested on: DLD-1
SF-539 = tested on: SF-539
OVCAR-8 = tested on: OVCAR-8
MOLT-4 = tested on: MOLT-4
SK-OV-3 = tested on: SK-OV-3
TK-10 = tested on: TK-10

Measured: GI50

O=C(Nc1ccccc1)O/N=C1/CCCC/C1=C\c1ccccc1
inactive: OVCAR-3 15.2 µM | SK-MEL-5 13 µM | ACHN 16.4 µM | SK-MEL-2 15 µM | HT-29 28.2 µM | M14 17.8 µM | HOP-18 13.7 µM | CCRF-CEM 10.7 µM | SR 16.1 µM | HOP-62 21.9 µM | DMS-273 15.9 µM | NCI-H23 26 µM | DMS-114 12 µM | SN12C 16.3 µM | HOP-92 22.9 µM | CAKI-1 15.7 µM | U-251 16.2 µM | SK-MEL-28 17.6 µM | IGROV-1 3.55 µM | M19-MEL 18.1 µM | RXF 393 16.3 µM | A498 23.2 µM | UACC-62 15.7 µM | OVCAR-5 26.2 µM | UO-31 13.2 µM | KM-20L2 19.6 µM | SF-295 16.1 µM | OVCAR-4 14.8 µM | 786-0 16.7 µM | HCC 2998 20.6 µM | NCI-H226 24.9 µM | NCI-H522 16.4 µM | RXF 631 18.3 µM | LOX IMVI 18.9 µM | SW-620 16.3 µM | K562 10 µM | SNB-78 12.4 µM | COLO 205 14.5 µM | NCI-H460 15.1 µM | RPMI-8226 16.5 µM | SNB-75 13.9 µM | HCT-116 13.7 µM | SF-268 15.6 µM | LXFL 529 8.49 µM | UACC-257 19.5 µM | DLD-1 14.6 µM | SF-539 17.7 µM | OVCAR-8 18.1 µM | MOLT-4 5.53 µM | SK-OV-3 20.3 µM | TK-10 17.9 µM
11.3 µM: HCT-15
